# Measured values as given in PubChem BioAssay (NCI).
#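 Cells were grown in 96-well plates and exposed to each compound for 48 hours at five concentrations; endpoints were interpolated linearly between bracketing concentrations, or set to the highest concentration if not reached. GI50 marks 50% less growth. At the TGI there is no net growth.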
# Experiments:
# Test in all cases: NCI anticancer screen, dose series, 48 h
# EKVX NSCLC = system: EKVX NSCLC
# SR leukemia = system: SR leukemia
# HCC-2998 colon = system: HCC-2998 colon
# UO-31 renal = system: UO-31 renal
# MDA-MB-231 breast = system: MDA-MB-231 breast
# CAKI-1 renal = system: CAKI-1 renal
# SK-MEL-5 melanoma = system: SK-MEL-5 melanoma
# IGROV1 ovarian = system: IGROV1 ovarian
# SK-OV-3 ovarian = system: SK-OV-3 ovarian
# LOX IMVI melanoma = system: LOX IMVI melanoma
SMILES,GI50 (EKVX NSCLC),TGI (EKVX NSCLC),GI50 (SR leukemia),TGI (SR leukemia),GI50 (HCC-2998 colon),TGI (HCC-2998 colon),GI50 (UO-31 renal),TGI (UO-31 renal),GI50 (MDA-MB-231 breast),TGI (MDA-MB-231 breast),GI50 (CAKI-1 renal),TGI (CAKI-1 renal),GI50 (SK-MEL-5 melanoma),TGI (SK-MEL-5 melanoma),GI50 (IGROV1 ovarian),TGI (IGROV1 ovarian),GI50 (SK-OV-3 ovarian),TGI (SK-OV-3 ovarian),GI50 (LOX IMVI melanoma),TGI (LOX IMVI melanoma)
Cc1cc(Cl)ccc1Nc1nc(C(F)(F)F)ccc1C(=O)Nc1cccc(C(F)(F)F)c1,1.85 µM,11.1 µM,2.56 µM,8.28 µM,3.3 µM,15.7 µM,3.71 µM,16 µM,2.03 µM,8.15 µM,3.61 µM,17.8 µM,2.79 µM,9.34 µM,3.88 µM,22.7 µM,2.44 µM,10.8 µM,2.79 µM,8.55 µM
CCc1nc(N)nc(N)c1C#CC(C)c1cc(-c2ccnc(C)c2)c2oc(C)nc2c1 (stereo unspecified),0.451 µM,15 µM,< 0.0342 µM,> 53.9 µM,0.0206 µM,5.95 µM,0.0181 µM,11.5 µM,0.527 µM,16.9 µM,< 0.0109 µM,5.58 µM,< 0.01 µM,1.49 µM,< 0.01 µM,6.23 µM,0.113 µM,8.53 µM,< 0.01 µM,2.3 µM
Cc1ccccc1NC(=O)c1cc2ccccc2cc1O,2.36 µM,91.8 µM,4.84 µM,> 100 µM,4.4 µM,26.2 µM,3.54 µM,> 100 µM,3.17 µM,15.2 µM,2.01 µM,5.87 µM,2.38 µM,5.58 µM,2.65 µM,30.3 µM,2.64 µM,14.6 µM,3.26 µM,> 100 µM
COc1ccc2c(c1)C=C1CSCC3=Cc4cc(OC)ccc4OC13O2,3.14 µM,> 100 µM,0.164 µM,> 100 µM,1.07 µM,> 100 µM,0.642 µM,> 100 µM,0.568 µM,> 100 µM,0.41 µM,> 100 µM,0.41 µM,> 100 µM,0.608 µM,> 100 µM,0.671 µM,> 100 µM,0.656 µM,> 100 µM
CC(C)=CCc1cc(C2COc3cc4c(c(O)c3C2=O)C=CC(C)(C)O4)c(O)cc1O (stereo unspecified),–,27.5 µM,–,24.1 µM,–,32.7 µM,–,26 µM,–,27.5 µM,–,30.9 µM,–,25 µM,–,36.4 µM,–,29.8 µM,–,43.4 µM
c1ccc(/C(=N\Nc2ccc3ccccc3n2)c2ccccn2)cc1,0.281 µM,8.39 µM,0.246 µM,1.14 µM,0.904 µM,16.7 µM,0.361 µM,4.89 µM,0.839 µM,43.4 µM,0.0927 µM,3.95 µM,0.487 µM,2.92 µM,0.433 µM,3.23 µM,0.612 µM,18 µM,0.457 µM,5.61 µM
O=C1COCCN1c1ccc(NCc2cn(C(=O)c3ccc(Cl)cc3)c3ccccc23)cc1,17.2 µM,> 100 µM,3.08 µM,> 100 µM,12.1 µM,88.4 µM,2.09 µM,16.5 µM,4.61 µM,22.9 µM,0.0531 µM,1.8 µM,4.1 µM,16.3 µM,0.252 µM,8.51 µM,2.27 µM,92.1 µM,5.53 µM,19.8 µM
CCC(=O)c1c(C(F)(F)F)n([O-])c2ccccc2[n+]1=O,2 µM,7.32 µM,0.193 µM,10.3 µM,1.68 µM,6.31 µM,0.829 µM,> 20.2 µM,2.23 µM,7.93 µM,1.54 µM,6.03 µM,0.961 µM,2.64 µM,1.38 µM,> 100 µM,3.05 µM,14 µM,1.39 µM,3.38 µM
CN(C)CC1=Nc2cccc3cccc(c23)N1,–,31.7 µM,–,84.3 µM,–,32.3 µM,–,23 µM,–,34.7 µM,–,38.6 µM,–,28.7 µM,–,36.6 µM,–,> 100 µM,–,37.3 µM
Cn1c2ccccc2c2[nH]c3ccccc3c(=O)c21,–,> 100 µM,–,> 100 µM,–,> 100 µM,–,> 100 µM,–,> 100 µM,–,> 100 µM,–,> 100 µM,–,> 100 µM,–,> 100 µM,–,> 100 µM
O=C1OC(OC/C(Br)=C(/Br)COC2OC(=O)C(Cl)=C2Cl)C(Cl)=C1Cl (stereo unspecified),–,32.2 µM,1.6 µM,5.46 µM,–,34.1 µM,–,15.6 µM,–,17 µM,–,7.68 µM,–,26.8 µM,–,28.2 µM,–,> 55.8 µM,–,8.36 µM
COc1ccc(OC)c(/C=N/N=C2\C(=O)Nc3c(Cl)cc(Cl)cc32)c1,–,> 100 µM,–,> 100 µM,–,> 100 µM,–,> 100 µM,–,> 100 µM,–,> 100 µM,–,> 100 µM,–,> 100 µM,–,> 100 µM,–,> 100 µM
COC(=O)Nc1nc2ccc(S(=O)(=O)c3ccc(NC(=O)Nc4cc(C(F)(F)F)ccc4F)cc3)cc2[nH]1,> 25 µM,> 25 µM,> 25 µM,> 25 µM,> 25 µM,> 25 µM,> 25 µM,> 25 µM,> 25 µM,> 25 µM,> 25 µM,> 25 µM,> 25 µM,> 25 µM,> 25 µM,> 25 µM,> 25 µM,> 25 µM,> 25 µM,> 25 µM
NCCSC(C[N+](=O)[O-])c1ccccc1Cl (stereo unspecified),16.9 µM,41.6 µM,3.05 µM,> 100 µM,2.1 µM,4.03 µM,3.46 µM,10.1 µM,12 µM,25.8 µM,9.88 µM,24.3 µM,3.03 µM,10.1 µM,2.89 µM,9.67 µM,11.7 µM,24 µM,1.69 µM,3.56 µM
Oc1ccc(O)c2c1C1(Cl)C(Cl)=C(Cl)C2(Cl)C1(Cl)Cl,1.47 µM,7.45 µM,2.65 µM,24.7 µM,8.7 µM,21.3 µM,2.43 µM,10.6 µM,4.65 µM,23 µM,2.44 µM,8.31 µM,5.09 µM,17 µM,5.73 µM,20.2 µM,7.41 µM,20.4 µM,3.18 µM,13.4 µM
C=C1C(=O)O[C@H]2[C@H]1CC/C(CNC(=O)/C=C/c1ccc(Cl)cc1Cl)=C\CC[C@@]1(C)O[C@@H]21,1.55 µM,3.1 µM,0.232 µM,1.89 µM,1.56 µM,2.98 µM,1.03 µM,2.28 µM,1.35 µM,3.18 µM,0.759 µM,2.16 µM,1.63 µM,3.02 µM,1.63 µM,3.41 µM,3.33 µM,13 µM,0.516 µM,1.81 µM
